The text below walks through data of US20220404374A1, “METHOD FOR DETERMINING WHETHER OR NOT A SUBJECT HAS A PARKINSONIAN CONDITION” (UNIVERSITE DU LUXEMBOURG, priority 2019, published 2022).

The test system of data set [1] is wildtype mice. Nature of the data set: adhesive removal test in mice after 2-HP injection into the brain. The class given is in vivo. To be noted: higher 2-HP concentrations injected into the brain, 15 days post-injection, vs PBS. Here is the method: The in vivo work testing for effects of 2-HP in a mouse model lead to results from a small-scale 15-day experiment. In this experiment, 2-HP was injected at several concentrations (5, 50 and 100 mM) into the brain of transgenic mice overexpressing human alpha-synuclein, and of wildtype control mice.

In data set [2] the test system is HiTox strains of yeast expressing human alpha-synuclein. Nature of the data set: toxicity assays of 2-HP in HiTox strains of yeast expressing human alpha-synuclein (growth phenotyping). The class given is cell-based. As for the experimental part: Yeast cells were grown in synthetic complement (SC) media containing 6.7 g/L yeast nitrogen base without amino acids, 5 g/L ammonium sulfate supplemented with 2 g/L SC. Media was autoclaved and the carbon source (8% raffinose or galactose) was added to a final concentration of 2%.
Four fresh single colonies of the Hitox strain and its respective control strain were inoculated from SC-2% glucose plates into 5 mL SC-2% raffinose and incubated overnight with shaking (200 rpm) at 30° C. After ≈20 h, overnight cultures were diluted to OD 0.5 and 2 μL of the yeast cultivation was added to 78 μL drug containing media to a final optical density of 0.0125 in a 384-well microplate. 2-HP was diluted in SC-2% raffinose/galactose and tested at different concentrations (1-100 mM). Finally, the plates are measured in a microplate reader (TECAN™ Infinite M200Pro), at an interval of 10 minutes during 72 h at 30° C. Yeast growth phenotyping was performed as previous described (Jung et al. 2015). Final biomass was corrected using the GATHODE software (Jung et al. 2015). The OD600 at 48 h was taken for the quantification.

Data set [3] relates to enteric neurons. Put plainly: toxicity of 2-HP in enteric neurons (MTT cell viability assay). In kind it is cell-based. Here is the method:
Enteric neurons were cultured in differentiation medium, consisting on Neurobasal (Invitrogen, 21103049) supplemented with 1:200 N2 (Invitrogen, 17502048), 1:100 L-Glutamine (Invitrogen, 25030-024), 1:100 B-27 without Vitamin A (Life Technologies, 12587-010), 1:100 Penicillin/Streptomycin (Invitrogen, 15140122), 25 ng/mL GDNF (Peprotech, 450-10) and 100 μM Ascorbic Acid (Sigma, A5960). Cells were cultured for 21 days in a 6-well plate, then detached with Accutase (Sigma, A6964), and replated into a 96-well plate. Cells were maintained under differentiating conditions until day 31, when they were treated with increasing concentrations of 2-hydroxypyridine (Sigma, H56800). Tested concentrations were as follows: 1 μM, 3 μM, 6 μM, 10 μM, 30 μM, 60 μM, 100 μM, 300 μM, 600 μM, 1 mM and 3 mM.
2-hydroxypyridine was reconstituted to 10 mM in the differentiation medium described above.
Cells were treated for 24 h, then cell viability was assessed performing a Tetrazolium (MTT) assay. Thiazolyl Blue tetrazolium Bromide (Sigma, M5655) was reconstituted to a 5 mg/mL solution in differentiation media and filtered. 10 μL of the solution were then added to every well containing 100 μL of media. Plate was incubated for 2 h in a normal incubator (37° C., 5% CO2). […] Cells were disaggregated by pipetting vigorously and absorbance was read at 570 nm, using the microplate Cytation 5M reader (Biotek).

Data set [4] deals with IL-1b mRNA expression. Put plainly: IL-1b mRNA expression (qPCR) in murine bone-marrow derived macrophages. In kind it is cell-based. To be noted: 10 mM 2-HP, murine BMDMs. As for the experimental part:
NLRP3 inflammasome activation is thought to play a role in the pathogenesis of neurodegenerative disorders, and increased levels of this inflammasome and of the related cytokine IL-1b have been detected in Parkinson's patients (Guan & Han, 2020). […] Inflammasome activation was evaluated with qPCR for IL-1b expression (normalized to β-actin), considering the fold change relative to 0 mM 2-HP of each time point.

The mark [5] stands for this setting: control strain, higher concentration of 2-HP (FIG. 3C).

As to `Oc1ccccn1` [2-HP, 2-hydroxypyridine], the “performance in the adhesive removal test (sensorimotor function)” value in data set [1] is “perform worse”. In addition, the “dose at which 2-HP is selectively toxic to transgenic alpha-synuclein expressing yeast” value in data set [2] (HiTox yeast expressing human alpha-synuclein vs control strain) turned out to be 1 mM. In addition, in data set [2] (setting [5]), the “lag time of growth curve” value was “prolonged” and the “yield of growth curve” value was “unaffected”. Also, in data set [2] (galactose, alpha-synuclein induced (FIG. 3B), HiTox strains vs control strain), the “toxic dose-response, galactose” value is listed as “A toxic dose-response can be observed in the HiTox strains, but not in the control strain”. The “toxic dose-response, raffinose” value in data set [2] (raffinose, alpha-synuclein not induced (FIG. 3A)) is “A toxic dose-response can be observed”. Also, in data set [3], the “toxicity on enteric neurons at 3 mM” value was “significant changes”. For the same molecule, the LD50 result in data set [3] (enteric neurons, 24 h treatment, MTT) is “around 3 mM”. Also, in data set [4] (3 hours), the “increase in IL-1b mRNA (fold change relative to 0 mM 2-HP, normalized to β-actin)” value is reported as 3.2 fold. Further, the “increase in IL-1b mRNA (fold change relative to 0 mM 2-HP, normalized to β-actin)” value in data set [4] (24 hours) is 1.5 fold.
